Laboratory results: ChEMBL document CHEMBL3044882, “Mosquito larvicidal studies of some chalcone analogues and their derived products: structureactivity relationship analysis” (2011)
Active and inactive are the calls of the source. The rule behind the calls is not given here.

Columns and labels:
[1] = system: Culex quinquefasciatus; experiment: Toxicity against third instar larve of Culex quinquefasciatus assessed as mortality at 100 ugcm'-3 after 24 hr; assay type: functional
[2] = system: Culex quinquefasciatus; experiment: Toxicity against third instar larve of Culex quinquefasciatus after 24 hr; assay type: functional

| Structure (SMILES) | mortality [1] | LC50 [2] |
| --- | --- | --- |
| O=C(/C=C/c1ccccc1)c1ccccc1 [CHALCONE] | 100% | 90 umol/dm3 |
| O=C(/C=C/c1cccc([N+](=O)[O-])c1)c1ccccc1 | – | 994.4 umol/dm3 |
| O=C(/C=C/c1ccc2c(c1)OCO2)c1ccccc1 | – | 5 umol/dm3 |
| C(=C\c1ccccc1)/C(=N/Nc1ccccc1)c1ccccc1 | – | 2134.5 umol/dm3 |
| O=C(/C=C/c1ccc2c(c1)OCO2)c1ccccc1O | – | 986.1 umol/dm3 |
| CC(/C=C/c1ccccc1)=N\Nc1ccc([N+](=O)[O-])cc1[N+](=O)[O-] | inactive | 2344.1 umol/dm3 |
| CC(/C=C/c1ccccc1)=N/O | – | 345 umol/dm3 |
| O=C(/C=C/C=C/c1ccccc1)c1ccccc1 | – | 437 umol/dm3 |
| O=C(/C=C/c1ccccc1O)c1ccccc1 | 100% | 104 umol/dm3 |
| O=C(/C=C/c1ccc(Cl)cc1)c1ccccc1 [4-CHLORO CHALCONE] | – | 5 umol/dm3 |
| COc1cccc(/C=C/C(=O)c2ccccc2O)c1-c1ccc(O)cc1 | – | 684.9 umol/dm3 |
| O=C(/C=C/c1cccc([N+](=O)[O-])c1)c1ccccc1O | – | 526.6 umol/dm3 |
| CC(/C=C/c1ccccc1)=N\NC(N)=O | – | 2087.9 umol/dm3 |
| O=C(/C=C/c1ccc([N+](=O)[O-])cc1)c1ccccc1O | – | 881.6 umol/dm3 |
| O=[N+]([O-])c1ccc(NN=C(/C=C/c2ccccc2)/C=C/c2ccccc2)c([N+](=O)[O-])c1 | inactive | 2638.2 umol/dm3 |
| O=C(/C=C/C=C/c1ccccc1)c1ccccc1O | – | 1121.1 umol/dm3 |
| O=C(/C=C/c1ccc(Cl)cc1)c1ccccc1O | 100% | 81 umol/dm3 |
| O=C(/C=C/c1ccco1)c1ccccc1O | 100% | 19 umol/dm3 |
| O=C(/C=C/c1ccccc1)c1ccccc1O [2'-HYDROXYCHALCONE] | 100% | 55 umol/dm3 |
| O=C(/C=C/c1ccccc1)/C=C/c1ccccc1 | – | 2064.4 umol/dm3 |
| O=C(/C=C/c1cccc([N+](=O)[O-])c1)c1ccc(O)cc1 | – | 89 umol/dm3 |
| O=C(/C=C/c1ccc([N+](=O)[O-])cc1)c1ccc(O)cc1 | – | 91 umol/dm3 |
| O=C(/C=C/c1ccc([N+](=O)[O-])cc1)c1ccccc1 | – | 959.5 umol/dm3 |
| CC(/C=C/c1ccccc1)=N\Nc1ccccc1 | – | 465 umol/dm3 |
| O=[N+]([O-])c1ccc(N/N=C(/C=C/c2ccccc2)c2ccccc2)c([N+](=O)[O-])c1 | inactive | 2531.3 umol/dm3 |
| COc1cccc(/C=C/C(=O)c2ccccc2)c1-c1ccc(O)cc1 | – | 1474 umol/dm3 |
| O=C(/C=C/c1ccccc1)c1ccc(O)cc1 [4'-HYDROXYCHALCONE] | – | 238 umol/dm3 |
